The record followed here is patent publication US20090098548A1, “MODULATORS OF ENZYMATIC NUCLEIC ACID ELEMENTS MOBILIZATION” (priority 2004, published 2009).

Molecules are shown by their SMILES.

The target in one test is T1, HIV-1 integrase (Human immunodeficiency virus type 1 group M subtype B, UniProt P04585). The test is described as follows: HIV-1 integrase in vitro activity, 3' strand processing (denaturing PAGE). On the set-up: HIV-1 integrase (1 μM, final concentration); made in house. The format is biochemical. The settings on record: 1 μM integrase; pre-incubated 30° C. 30 min; 21-base pair 32P substrate, 10 mM MnCl2, 15 min 37° C.; ± SD from fit; at least two, typically three experiments; read-out: HIV-1 integrase (3' strand processing) IC50. As to the method: The degree of 3′ strand processing is measured by the percentage of the signal obtained for the 3′ strand processing product relative to the total signal per lane. IN=integrase.
These values are calculated from data measuring the percentage of the 3′ strand processing product formed, as described in FIG. 6. Assay products are observed using PAGE, as described in the methods section. Each value represents at least two, typically three, independent experiments. Error is represented as the standard deviation (SD) from the fit of the data to the equation used to calculate the IC50.
Increasing concentrations (0.01, 0.1, 1, 10, 20, 30, 50, 75, 100 μM) of each compound were used to determine their ability to block HIV-1 integration in vivo and determine their inherent cytotoxicity, as described in the methods section of example 2 below. Reactions were performed in triplicate. Each compound is further analyzed for inhibition of integrase activity in vitro, as described in FIG. 6. Each value represents three independent experiments. Error is represented as the standard deviation (SD) from the fit of the data to the equation used to calculate the IC50. IN=integrase.
(§1) Transposase and integrase purification: The EK54, MA56 and LP372 hyperactive mutant version of transposase was used for all assays and is referred to as transposase throughout this work. Transposase and integrase proteins were purified as described in Ason, B., and W. S. Reznikoff, J Mol Biol 335:1213-25, 2004 and Taganov, K. D. et al., Journal of Virology 78:5848-55, 2004, both are herein incorporated by reference in their entirety.
(§2) HIV-1 integrase assay: HIV-1 integrase activity was measured as described in Daniel, R. et al., AIDS Res Hum Retroviruses 20:135-44, 2004 (incorporated by reference in its entirety), except that 1.0 μL of either DMSO or inhibitor were added to the reactions. Briefly, HIV-1 integrase (1 μM, final concentration) was pre-incubated with various concentrations of inhibitor at 30° C. for 30 min. A 21-base pair ^32P labeled substrate (1×10^6 dpm), representing the U5 end of the viral genome, and MnCl2 (10 mM, final concentration) were subsequently added to the reaction. The reaction proceeded for 15 min. at 37° C. The reactions were subsequently quenched using EDTA (10 mM, final concentration), and the products separated on a 20% denaturing polyacrylamide gel.
What is called IC50 is the concentration needed to halve the response being measured. For `COc1ccc(C(c2c(O)c3ccccc3oc2=O)c2c(O)c3ccccc3oc2=O)cc1Cn1nc(C)c([N+](=O)[O-])c1C` [Compound 4], the IC50 was determined as 9 ± 2 µM.

On to `O=S(=O)(c1cc(Cl)cc(Cl)c1O)c1cc(Cl)cc(Cl)c1O` [Compound 6], for which the IC50 was 32 ± 9 µM.

As to `COc1cc(C=C2SC(=S)NC2=O)ccc1OS(=O)(=O)c1ccccc1[N+](=O)[O-]` [Compound 14], the IC50 stood at 17 ± 3 µM.

Staying with this test, now noted: read-out: HIV-1 IN (integrase) in vitro IC50.
As for `O=C(C1=C(O)C(=O)N(c2ccccc2)C1c1cccc([N+](=O)[O-])c1)c1ccccc1` (stereo not shown) [Compound 10-A], the IC50 was found to be 165 ± 35 µM.

Consider `COc1ccc(N2C(=O)C(O)=C(C(=O)/C=C/c3ccccc3)C2c2cccc([N+](=O)[O-])c2)cc1` (stereo not shown) [Compound 10-B], for which the IC50 stood at 22 ± 12 µM.

`COc1ccc(N2C(=O)C(O)=C(C(=O)/C=C/c3ccccc3)C2c2ccc([N+](=O)[O-])cc2)cc1` (stereo not shown) [Compound 10-C]: the IC50 is 46 ± 12 µM.

As for `O=C(/C=C/c1ccccc1)C1=C(O)C(=O)N(c2cccc(C(=O)O)c2)C1c1ccc([N+](=O)[O-])cc1` (stereo not shown) [Compound 10-D], the IC50 worked out at 87 ± 9 µM.

Turning to `COc1ccc(N2C(=O)C(O)=C(C(=O)/C=C/c3ccccc3)C2c2ccc(Cl)cc2)cc1` (stereo not shown) [Compound 10-E], the IC50 is 12 ± 3 µM.

`O=C(/C=C/c1ccccc1)C1=C(O)C(=O)N(c2cccc(C(F)(F)F)c2)C1c1ccc([N+](=O)[O-])cc1` (stereo not shown) [Compound 10-F]: the IC50 was 11 ± 4 µM.

Turning to `Cc1ccccc1N1C(=O)C(O)=C(C(=O)/C=C/c2ccccc2)C1c1ccc(Br)cc1` (stereo not shown) [Compound 10-G], the IC50 was determined as 11 ± 2 µM.

The next test addresses T1, HIV-1 integrase. Briefly: HIV-1 integrase assay (3' strand processing, PAGE). Also noted: made in house.
Details: not given
Type of test: biochemical. The protocol:
as §2
As for `O=C(C1=C(O)C(=O)N(c2ccccc2)C1c1cccc([N+](=O)[O-])c1)c1ccccc1` (stereo not shown) [compound 10-A], the “inhibition of integrase in vitro (in words)” value is listed as “impedes its efficacy as an integrase inhibitor”.

The target of the next test is T2, Tn5 transposase (Escherichia coli, UniProt Q46731, E54K/L372P/M56A).
T2 construct: made in house
Assay: not given
Type of test: binding. The settings on record: read-out: IC50, inhibition of Tn5 transposase-DNA complex assembly; gel shift assays, inhibitor titration. For orientation: Mobility shift assays separate free from complexed probe on a gel.
Regarding `O=C(NC(=S)Nc1cc([N+](=O)[O-])cc(Cl)c1O)c1ccccc1` [aromatic thiourea], the IC50 worked out at 24 µM.

The target of another test is T3, Tn5 transposase (EK54, MA56 and LP372 hyperactive mutant version) (Escherichia coli, UniProt Q46731, E54K/L372P/M56A).
T3 construct: made in house
T3 sequence (Q46731 1-476 E54K/M56A/L372P): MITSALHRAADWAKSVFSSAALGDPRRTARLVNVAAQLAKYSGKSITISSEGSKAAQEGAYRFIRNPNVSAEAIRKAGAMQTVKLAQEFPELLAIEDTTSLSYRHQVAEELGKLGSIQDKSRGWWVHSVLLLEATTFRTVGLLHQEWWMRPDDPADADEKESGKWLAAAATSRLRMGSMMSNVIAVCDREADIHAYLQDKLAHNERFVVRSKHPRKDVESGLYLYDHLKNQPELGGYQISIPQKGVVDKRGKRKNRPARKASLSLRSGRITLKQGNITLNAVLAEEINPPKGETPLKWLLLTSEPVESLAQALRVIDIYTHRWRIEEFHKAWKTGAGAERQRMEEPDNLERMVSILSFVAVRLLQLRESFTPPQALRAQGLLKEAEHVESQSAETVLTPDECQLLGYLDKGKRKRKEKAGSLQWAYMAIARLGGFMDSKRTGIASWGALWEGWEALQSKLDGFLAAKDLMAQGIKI
The test is described as follows: Inhibition of Tn5 transposase-DNA complex assembly (synapsis), gel shift assay. Type of test: binding, prokaryotic (Tn5 transposon, IS4 family). The settings on record: 800 nM transposase, 160 nM dsDNA, 60 bp DNA, fit to exponential decay, ± SD from fit, at least two, typically three experiments. As to the method: The data in this graph were obtained from multiple experiments. Each data point represents at least two, typically three, independent experiments. Error is represented as the standard deviation (SD) from the fit of the data to the equation used to calculate the IC50. Tnp=transposase.
IC50 values were determined from gel shift assays, similar to FIG. 5. […] Each value represents at least two, typically three, independent experiments. Error is represented as the standard deviation (SD) from the fit of the data to the equation used to calculate the IC50.
DNA substrates: The oligonucleotides were purchased HPLC purified from IDT. dsDNA was formed by adding two μmoles of each oligonucleotide to 10 mM Tris-HCl pH 7.9 and 10 mM NaCl. The oligonucleotides were either heated to 96° C. for one minute followed by a decrease in temperature at 0.1° C./sec to 4° C. or heated to 90° C. in a 2 L water bath and cooled to 8° C. overnight. The transferred strand was 5′ end labeled with either rhodamine green for FP or fluorescein for gel shift assays.
The 19 bp DNA sequences used for FP assays were 5° C. […] The 40 bp DNA sequences used for the gel shift assays during assay development were 5° C.
as §1
FP and gel-shift assays: Reactions were performed as described in Ason, B., and W. S. Reznikoff, J Mol Biol 335:1213-25, 2004, except 800 nM transposase and 160 nM dsDNA were used for complex formation. For FP analysis, 60 μL reactions were analyzed using the FP protocol on a Wallac Victor V plate reader and a 7% native polyacrylamide gel was used in gel shift assays. For compound screening and subsequent analysis, 1 μL of either DMSO or test compound (final concentration […]) was added to the synapsis reactions. Compound screening was carried out using a Beckman Coulter Biomek FX in a 384 well format. Compounds identified as hits were rescreened using gel shift assays under synapsis conditions with a 120 μM compound concentration. IC50 values were obtained by fitting inhibitor titration data (0, 0.01, 0.05, 0.1, 0.5, 2.5, 10, 20, 35, 50, 100, 200, 400, 800 μM) to an exponential decay.
Regarding `O=c1oc2ccccc2c(O)c1C(c1cccc(F)c1)c1c(O)c2ccccc2oc1=O` [Compound 1], the IC50 stood at 8.1 ± 1.2 µM.

Consider `COc1ccc(C(c2c(O)c3ccccc3oc2=O)c2c(O)c3ccccc3oc2=O)cc1CSc1ccccn1` [Compound 2], for which the IC50 was found to be 4.8 ± 0.4 µM.

On to `Cc1ccc(C(c2c(O)c3ccccc3oc2=O)c2c(O)c3ccccc3oc2=O)cc1` [Compound 3], for which the IC50 was 3.5 ± 0.4 µM.

In the case of `COc1ccc(C(c2c(O)c3ccccc3oc2=O)c2c(O)c3ccccc3oc2=O)cc1Cn1nc(C)c([N+](=O)[O-])c1C` [Compound 4], the half-maximal inhibitory concentration (IC50) was 4.7 ± 0.4 µM.

Consider `COc1cc(C=C2SC(=S)NC2=O)cc(Cl)c1OC(C)C` [Compound 5], for which the IC50 amounted to 10 ± 1 µM.

As for `O=S(=O)(c1cc(Cl)cc(Cl)c1O)c1cc(Cl)cc(Cl)c1O` [Compound 6], the IC50 was found to be 4 ± 0.3 µM.

On to `CCc1nnc(NS(=O)(=O)c2ccc(NC=CC(=O)c3ccc4ccccc4c3)cc2)s1` [Compound 7], for which the IC50 is 4 ± 0.6 µM.

As to `Cc1ccc(C(=O)Nc2ccccc2C(=O)Nc2ccccc2C(=O)O)cc1` [Compound 8], the IC50 is 8.7 ± 1 µM.

Take `O=C1C(=C2c3ccccc3C(=O)C2C2c3ccccc3Oc3ccccc32)C(=O)c2ccccc21` (stereo not shown) [Compound 9]: the concentration for half-maximal inhibition (IC50) was found to be 3.4 ± 0.7 µM.

Turning to `O=C(/C=C/c1ccccc1)C1=C(O)C(=O)N(c2ccccc2)C1c1cccc([N+](=O)[O-])c1` (stereo not shown) [Compound 10], the IC50 came out at 35 ± 3 µM.

Turning to `COc1cccc(OCCOc2cccc(C=C3SC(=S)NC3=O)c2)c1` [Compound 11], the IC50 stood at 5.3 ± 0.9 µM.

As to `COc1cccc(C(c2c(O)c3ccccc3oc2=O)c2c(O)c3ccccc3oc2=O)c1` [Compound 12], the half-maximal inhibitory concentration (IC50) stood at 9.5 ± 0.9 µM.

As to `COc1cc(C=C2SC(=S)NC2=O)ccc1OS(=O)(=O)c1ccccc1[N+](=O)[O-]` [Compound 14], the IC50 turned out to be 8.6 ± 0.8 µM.

Take `O=C(Nc1ccccc1C(=O)O)c1ccc2c(c1)C(=O)N(c1ccccc1-c1ccccc1)C2=O` [Compound 15]: the IC50 turned out to be 20 ± 2 µM.

As to `O=C(Nc1ccccc1C(=O)O)c1cccc(NC(=O)C(c2ccccc2)c2ccccc2)c1` [Compound 16], the IC50 came out at 46 ± 5 µM.

For the compound `O=C(Nc1ccccc1C(=O)O)c1ccc(NC(=O)C(c2ccccc2)c2ccccc2)cc1` [Compound 17], the IC50 is 9.3 ± 0.9 µM.

With `O=C(O)C(Cc1ccccc1)N1C(=O)C(=Cc2ccc(Br)cc2)SC1=S` (stereo not shown) [Compound 18], the IC50 was determined as 10 ± 1 µM.

As for `O=C(O)C(Cc1ccccc1)N1C(=O)C(=CC=Cc2ccccc2)SC1=S` (stereo not shown) [Compound 19], the IC50 is 16 ± 2 µM.

Take `CCCOc1ccc(C(=O)Nc2ccc(Br)cc2C(=O)O)cc1` [Compound 20]: the IC50 is 20 ± 3 µM.
